From US20250288568A1, “NEW CRYSTAL FORM OF A PDE4 INHIBITOR” (CHIESI FARMACEUTICI S.P.A., priority 2022, published 2025)
In brackets after ≈: the same amount, converted by molar mass.

Experiments:
[1] = Solubility in Simulated Lung Fluid (SLF), saturation shake-flask method; type: physicochemical; settings: for solubility at 0.5 h / solubility at 1 h / solubility at 3 h: simulated lung fluid (SLF), aqueous with cosolvent or surfactant or cyclodextrin, thermodynamic from solid, SLF with 0.02% v/v Tween 80, pH 6.5, 37° C.
Method: A study of solubility in SLF for the characterization of the crystal Form 2 and crystal Form A of the compound of formula (I), was performed. The use of SLF, that mimics the physiologically lung fluid, can give a good understanding of the dissolution mechanism and possible in vivo behavior of a product, enhancing the predictive capability of the dissolution testing in terms of bioavailability and therapeutic effectiveness.
The experimental method used is based on saturation shake-flask method. The samples were prepared by adding, respectively, an excess of the crystal Form 2 of the compound of formula (I) and an excess of the crystal Form A of the compound of formula (I), to the solubility medium SLF. The solubility concentration value is the thermodynamic equilibrium concentration, determined by assaying the solute concentration of the filtrate from a saturated solution, using an analytical method by UPLC-MS (MRM quantification; calibration: from 0.01 to 10 μg/ml; every batch have been tested in duplicate and samples have been filtered and diluted 1/10 in duplicate).
The SLF used for the tests were prepared analogously to literature (Simulated Biological Fluids with Possible Application in Dissolution Testing, Dissolution Technologies, 2011, dx.doi.org/10.14227/DT180311P15, table 11, page 2215). To mimic better the lung fluid, a surfactant, particularly Tween 80, has been added (0.02% v/v).
The solubility profile of the crystal Form 2 and the crystal Form A of the compound of formula (I) was determined in SLF adjusted with acetic acid (1M) to pH of 6.5, in order to simulate an inflammation condition in the lung. The experiment was conducted at 37° C.
The following experimental conditions were applied for the SLF dissolution profile study respectively for the crystal Form 2 and the crystal Form A of the compound of formula (I). About 2.5 mg of the crystal Form 2 or the crystal Form A of the compound of formula (I) was dispersed in 2.5 ml of SLF with stirring system. The concentration of material in solution was determined after 0.5, 1 and 3 hours. In each time interval, the vessel stirring was stopped, and 180-250 μl of each samples have been collected and filtered by RC Membrane Syringe Filters 0.45 μm and injected in UPLC apparatus.

[2] = Lung PK after intratracheal administration to Sprague-Dawley rats (PreciseInhale system); type: in vivo; settings: rat, inhaled or intranasal, male Sprague-Dawley rats, 10 μg/lung deposited dose
Method: Crystal Form 2 of the compound of formula (I) was intratracheally administered to Sprague-Dawley rats using the PreciseInhale system at the dose of 10 μg/lung deposited dose. Powder aerosols was generated using 40 bar generating pressure. A total number of 24 Sprague-Dawley male rats was used for PK investigation; 8 time points for each study, n=3 rats/time point. Before administration, rats were anesthetized with sevoflurane and endotracheally intubated using appropriate steel catheters. Aerosol administration was performed connecting the catheter to the PreciseInhale system, previously set to deliver 10 μg/lung deposited dose to each animal.
Lung t1/2 is the terminal half-life, calculated by the formula ln(2)/λz, where λz is the first-order rate constant associated with the terminal (log-linear) portion of the curve. Estimated by linear regression of time vs. log concentration; i.e. the time it takes for the concentration of the drug in the lung to be reduced by 50%.
Lung MRTlast is the mean residence time from the time of dosing to the time of the last measurable concentration; i.e. the average time a molecule stays in the lung.

Row | solubility at 0.5 h [1] [µg/mL] | solubility at 1 h [1] [µg/mL] | solubility at 3 h [1] [µg/mL] | MRT last ([2]; mean residence time to last measurable concentration, read-out: Lung MRTlast) [h] | half-life ([2]; terminal half-life in lung, read-out: Lung t1/2 (converted)) [h] | Higher solubility in SLF with respect to the crystal Form A ([1]; crystal Form 2 vs crystal Form A, SLF, at 0.5, 1 and 3 hours) | Compound
1 | 0.16 (≈ 0.233 µM) | 0.18 (≈ 0.262 µM) | 0.2 (≈ 0.291 µM) |  |  |  | CS(=O)(=O)Nc1ccc(C(=O)O[C@@H](Cc2c(Cl)c[n+]([O-])cc2Cl)c2ccc(OC(F)F)c(OCC3CC3)c2)cc1OCC1CC1 [Crystal Form A, 3,5-dichloro-4-[(2S)-2-[3-(cyclopropylmethoxy)-4-(difluoromethoxy)phenyl]-2-{[3-(cyclopropylmethoxy)-4-(methanesulfonamido)benzoyl]oxy}ethyl]pyridine1-oxide, reference compound]
2 | 0.74 (≈ 1.08 µM) | 0.89 (≈ 1.29 µM) | 0.88 (≈ 1.28 µM) | 9.4 | 7.7 | at least 4.5 fold | CS(=O)(=O)Nc1ccc(C(=O)O[C@@H](Cc2c(Cl)c[n+]([O-])cc2Cl)c2ccc(OC(F)F)c(OCC3CC3)c2)cc1OCC1CC1 (single isomer, unassigned) [Crystal Form 2]
